# Reference: patent publication US20100029773A1 (priority 2004, published 2010)
# Experiments:
# [1] = test system: PrPSc in scrapie-infected N2a (ScN2a) cells; conditions: cell culture; cited from earlier work
# [2] = biological target: association between PrPC and PrPSc (recombinant mouse PrP binding to PrP-Sc aggregates from human CJD brain) (Mus musculus, UniProt P04925); set-up: species or system mouse rPrP; human PrP-Sc; conditions: for classification in primary SIFT screening: primary hit = at least approx. 50% of the effect of 17 μM DOSPA on sum of bins in green sectors 1-5; for validation in SIFT dilution series (dose-dependent inhibition): six point dilution series 0.1-100 mM (so in the source)
# [3] = test system: PrPSc in scrapie-infected N2a (ScN2a) cells; experiment: cells; type: cell-based, mouse; conditions: for activity against PrPSc propagation in cell culture: ScN2a cells, first screening at 15 mM (so in the source), 2 days; for EC50: Mus musculus, ScN2a, read-out: EC50 of clearance of PrPSc from the cells
# RML scrapie = conditions: for prolongation of the median of the survival time versus vehicle (75% DMSO) group: daily intraperitoneal, days 102-115 post intracerebral RML infection, 125-500 nmol
# α-synuclein = α-synuclein (Homo sapiens, UniProt P37840); experiment: DMSO-induced α-synuclein aggregation in vitro (fluorescence cross-correlation and SIFT analysis); type: biochemical; conditions: 10 μM in 1% DMSO, 3-5 h
# [4] = test system: PrP-Sc deposits in spleen; set-up: species or system C57Bl6 mice; conditions: mouse, in vivo
# association between PrPC and PrPSc (recombinant mouse PrP binding to PrP-Sc aggregates from human CJD brain), sequence (P04925 23-231 limits assumed): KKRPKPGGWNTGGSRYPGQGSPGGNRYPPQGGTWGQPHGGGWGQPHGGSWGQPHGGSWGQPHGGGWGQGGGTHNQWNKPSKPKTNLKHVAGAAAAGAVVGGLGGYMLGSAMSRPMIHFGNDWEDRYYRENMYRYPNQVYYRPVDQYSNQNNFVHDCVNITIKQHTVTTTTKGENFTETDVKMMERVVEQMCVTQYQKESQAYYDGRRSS
SMILES,classification in primary SIFT screening [2],validation in SIFT dilution series (dose-dependent inhibition) [2],prolongation of the median of the survival time versus vehicle (75% DMSO) group (RML scrapie),other results
"CCCCCCCC/C=C\CCCCCCCCOCC(C[N+](C)(C)CCNC(=O)C(CCCNCCCN)NCCCN)OCCCCCCCC/C=C\CCCCCCCC.Cl.Cl.Cl.Cl.[Cl-] (centres unmarked) [DOSPA, reference compound]",–,–,–,inhibition of PrPSc formation in scrapie-infected mouse cells (previous finding) [1]: inhibit PrPSc formation; SIFT signal in sectors of aggregates predominantly labelled with green rPrP ([2]; 17 μM): reduced SIFT signal; activity against PrPSc propagation in cell culture [3]: PrPSc is cleared from the infected cells
"O=C(NN=Cc1ccc(Cl)cc1Cl)c1ccc(O)c(O)c1 [305E04, 3,4-dihydroxy-N′-(2,4-dichlorobenzylidene)-benzohydrazide]",primary SIFT hits,validated in SIFT dilution series,–,–
"O=C(NN=Cc1ccc2ccccc2c1)c1ccccc1O [297F03, 2-hydroxy-N′-(naphthalen-2-ylmethylene)-benzohydrazide]",primary SIFT hits,validated in SIFT dilution series,–,–
"COc1cc(C=NN=C(N)N)ccc1OCc1c(C)c(C)c(Br)c(C)c1C [313B02, 1-(4-(4-bromo-2,3,5,6-tetramethylbenzyloxy)-3-methoxybenzylidene)-2-diaminomethylene-hydrazine]",primary SIFT hits,validated in SIFT dilution series,no such prolongation,"EC50 [3]: ~6 µM; toxic signs during treatment (RML scrapie; intraperitoneal 50 μl per day of 5 mM, reduced to 2.5 mM after day 4): toxic signs"
"COc1ccc(C=NNC(=O)c2cccc(F)c2)cc1Br [309F02, 3-fluoro-N′-(3-bromo-4-methoxybenzylidene)-benzohydrazide]",primary SIFT hits,validated in SIFT dilution series,11.5 days,–
"O=C(NN=Cc1ccc2ccccc2c1)c1ccc(O)cc1O [301C09, 2,4-dihydroxy-N′-(naphthalen-2-ylmethylene)-benzohydrazide]",primary SIFT hits,validated in SIFT dilution series,–,–
"O=C(NN=Cc1ccc2ccccc2c1)c1cccc(Cl)c1 [306H03, 3-chloro-N′-(naphthalen-2-ylmethylene)-benzohydrazide]",primary SIFT hits,validated in SIFT dilution series,–,–
"O=C(NN=Cc1ccc2ccccc2c1)c1ccc(O)c(O)c1 [293G02, 3,4-dihydroxy-N′-(naphthalen-2-ylmethylene)-benzohydrazide]",primary SIFT hits,validated in SIFT dilution series,9.5 days,EC50 [3]: ~2 µM; activity against PrPSc propagation in cell culture [3]: strongest cell culture activity; inhibition of formation of multimeric α-synuclein complexes (α-synuclein): inhibiting the formation of multimeric α-synuclein complexes to a large extent; PrP-Sc deposits in spleen tissue [4]: no signs of PrP-Sc deposition could be detected
